# Reference: patent US6599506B1, “D-form polypeptide that inhibits the interaction between LFA-1 and ICAM-1” (The University of Kansas, priority 1999, dated 2003)
# Like-named read-outs stand apart in the source and are kept apart here. Bridge positions count the residues as written; N and C are the ends. Square brackets hold non-standard residues; d marks the D form. Ends that are not written are not given here. Peptide text beside a SMILES is read from it. Pen = CC(C)(S)[C@H](N)C(=O)O
# B1: cLBEC (peptide)
# peptide: H-[Pen]DLRNVKKLGGC-NH2
# modifications: disulfide 1-12
# SMILES: CC(C)C[C@@H]1NC(=O)[C@H](CCCCN)NC(=O)[C@H](CCCCN)NC(=O)[C@H](C(C)C)NC(=O)[C@H](CC(N)=O)NC(=O)[C@H](CCCNC(=N)N)NC(=O)[C@H](CC(C)C)NC(=O)[C@H](CC(=O)O)NC(=O)[C@@H](N)C(C)(C)SSC[C@@H](C(N)=O)NC(=O)CNC(=O)CNC1=O
# B2: cLBEL (peptide)
# peptide: H-[Pen]DLSYSLDDLRC-NH2
# modifications: disulfide 1-12
# SMILES: CC(C)C[C@@H]1NC(=O)[C@H](CC(=O)O)NC(=O)[C@H](CC(=O)O)NC(=O)[C@H](CC(C)C)NC(=O)[C@H](CO)NC(=O)[C@H](Cc2ccc(O)cc2)NC(=O)[C@H](CO)NC(=O)[C@H](CC(C)C)NC(=O)[C@H](CC(=O)O)NC(=O)[C@@H](N)C(C)(C)SSC[C@@H](C(N)=O)NC(=O)[C@H](CCCNC(=N)N)NC1=O
# B3: D-LBEL (peptide)
# peptide: H-[dD][dL][dS][dY][dS][dL][dD][dD][dL][dR]-OH
# SMILES: CC(C)C[C@@H](NC(=O)[C@H](N)CC(=O)O)C(=O)N[C@H](CO)C(=O)N[C@H](Cc1ccc(O)cc1)C(=O)N[C@H](CO)C(=O)N[C@H](CC(C)C)C(=O)N[C@H](CC(=O)O)C(=O)N[C@H](CC(=O)O)C(=O)N[C@H](CC(C)C)C(=O)N[C@H](CCCNC(=N)N)C(=O)O
# B4: D-LBER (peptide)
# peptide: H-GG[dD][dL][dL][dR][dA][dL][dN][dE]-OH
# SMILES: CC(C)C[C@@H](NC(=O)[C@@H](C)NC(=O)[C@@H](CCCNC(=N)N)NC(=O)[C@@H](CC(C)C)NC(=O)[C@@H](CC(C)C)NC(=O)[C@@H](CC(=O)O)NC(=O)CNC(=O)CN)C(=O)N[C@H](CC(N)=O)C(=O)N[C@H](CCC(=O)O)C(=O)O
# B5: LBEL (linear L-peptide) (peptide)
# peptide: DLSYSLDDLR
# B6: D-LBEC (peptide)
# peptide: H-[dD][dL][dR][dN][dV][dK][dK][dL]GG
# modifications: not fully specified (C-terminus)
# Tests used:
# [1] = tested on: human tonsil T cells (responders) with irradiated human mononuclear stimulator cells; T-cell proliferation; assay type: cell-based; details: for inhibitory effect on T-cell proliferation: FIG. 3, tested at 125, 250 and 500 μM; for Inhibition of T-cell Proliferation (%): peptides at 500 μM; for effectiveness in inhibiting responder T-cell proliferation: FIG. 2, tested at 50, 150, 250, 350, 500 and 750 μM
# Source text: The one-way MLR has been previously described (Kruisbeek et al., Current Protocols in Immunology, Proliferative Assays for T-Cell Function, '3.12.1-3.12.14 (1991), which is incorporated herein by reference). Specifically, human tonsil T cells were suspended at a concentration of 2−4×10^6 cells/ml in cell culture medium (RPMI), for use as responders. Stimulator cells were human mononuclear cells isolated from first Ficoll separation of peripheral blood (buffy coat) and were suspended at a concentration of 2−4×10^6 cells/ml in cell culture medium (RPMI). The stimulator cells were inactivated before use by treatment with 3,000-5,000 rad of ionizing radiation from γ137Cs source. One hundred μl of each cell suspension were combined in each well of a 96-well plate in the absence or presence of varying concentrations of test polypeptides, as detailed below. Cell proliferation was assessed after 72 hours, by 3H-thymidine addition to each well (1 μCi/well, 67 Ci/mmol) with incubation for six hours. The cells were harvested using a PHD Cell Harvester (Cambridge Technology, Inc., Watertown, Mass.); the incorporated 3H was assessed using a liquid scintillation counter (Packard Instrument, Inc., Donner's Grove, Ill.).
# In FIGS. 2 and 3, the Y-axis values are mean percentage ±SE of proliferation of responders. “2s” refers to irradiated buffy coat cells, and “2r” refers to T-lymphocytes derived from tonsil. “2s2r” refers to non-treated, mixed lymphocyte sample, which is the positive control (represented by dashed line). Inhibition of proliferation by anti-CD11a antibody (Pharmingen, anti-human CD11a) was used as a control for inhibition of the LFA-1/ICAM-1 interaction. These polypeptides are derived from the human LFA-1 β (CD18) subunit.
# [2] = target: intracellular adhesion molecule (ICAM-1; CD54) (UniProt P05362 28-532, limits assumed); test: cell-based or functional assay
# Sequence of intracellular adhesion molecule (ICAM-1; CD54) (P05362 28-532 limits assumed): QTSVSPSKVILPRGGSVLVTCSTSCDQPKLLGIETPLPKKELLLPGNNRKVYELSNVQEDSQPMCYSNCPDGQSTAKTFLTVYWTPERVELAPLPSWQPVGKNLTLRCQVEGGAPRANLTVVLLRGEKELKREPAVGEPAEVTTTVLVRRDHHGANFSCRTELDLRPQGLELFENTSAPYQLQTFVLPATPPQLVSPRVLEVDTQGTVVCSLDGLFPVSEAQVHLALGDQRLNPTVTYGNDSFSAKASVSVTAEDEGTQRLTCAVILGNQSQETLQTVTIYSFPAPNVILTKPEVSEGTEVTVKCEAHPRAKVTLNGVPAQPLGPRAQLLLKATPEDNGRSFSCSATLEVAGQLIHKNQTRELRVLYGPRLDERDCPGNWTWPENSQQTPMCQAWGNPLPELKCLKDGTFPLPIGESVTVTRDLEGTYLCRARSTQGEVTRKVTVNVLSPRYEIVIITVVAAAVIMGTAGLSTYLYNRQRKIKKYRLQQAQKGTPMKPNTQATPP
# [3] = linear D-peptides (*3), minus value = peptide activated T-lymphocytes
molecule,measurement,setting,value
H-DLRNVKKLGG-H (H-[dD][dL][dR][dN][dV][dK][dK][dL]GG; not fully specified; also: C-terminus written -H) [D-LBEC],inhibitory effect on T-cell proliferation,[1],did not show any inhibitory effects
same,Inhibition of T-cell Proliferation (%),[1]; [3],−47.6(*4) %
"CC(C)C[C@@H](NC(=O)[C@H](N)CC(=O)O)C(=O)N[C@H](CO)C(=O)N[C@H](Cc1ccc(O)cc1)C(=O)N[C@H](CO)C(=O)N[C@H](CC(C)C)C(=O)N[C@H](CC(=O)O)C(=O)N[C@H](CC(=O)O)C(=O)N[C@H](CC(C)C)C(=O)N[C@H](CCCNC(=N)N)C(=O)O [D-LBEL, H-DLSYSLDDLR-OH] (H-[dD][dL][dS][dY][dS][dL][dD][dD][dL][dR]-OH)",inhibiting T-cell proliferation in MLR assays,[1],significantly effective
same,inhibitory effect on T-cell proliferation,[1],"amazing inhibitory effect, which was much more effective than either LBE or cLBEL"
"LBEL: linear L-peptide of Table 2, sequence not printed (DLSYSLDDLR)",Inhibition of T-cell Proliferation (%),"[1]; linear L-peptides (*1), second value of cell 'x/y'",N.D./24.8%
H-GGDLLRALNE-OH (H-GG[dD][dL][dL][dR][dA][dL][dN][dE]-OH) [D-LBER],inhibitory effect on T-cell proliferation,[1],lost the biological function to inhibit T-cell proliferation
same,Inhibition of T-cell Proliferation (%),[1]; [3],−90.5(*4) %
"CC(C)C[C@@H]1NC(=O)[C@H](CC(=O)O)NC(=O)[C@H](CC(=O)O)NC(=O)[C@H](CC(C)C)NC(=O)[C@H](CO)NC(=O)[C@H](Cc2ccc(O)cc2)NC(=O)[C@H](CO)NC(=O)[C@H](CC(C)C)NC(=O)[C@H](CC(=O)O)NC(=O)[C@@H](N)C(C)(C)SSC[C@@H](C(N)=O)NC(=O)[C@H](CCCNC(=N)N)NC1=O [cLBEL, H-PenDLSYSLDDLRC-NH2] (H-[Pen]DLSYSLDDLRC-NH2; disulfide 1-12)",effectiveness in inhibiting responder T-cell proliferation,[1],more effective than LBE
"CC(C)C[C@@H]1NC(=O)[C@H](CCCCN)NC(=O)[C@H](CCCCN)NC(=O)[C@H](C(C)C)NC(=O)[C@H](CC(N)=O)NC(=O)[C@H](CCCNC(=N)N)NC(=O)[C@H](CC(C)C)NC(=O)[C@H](CC(=O)O)NC(=O)[C@@H](N)C(C)(C)SSC[C@@H](C(N)=O)NC(=O)CNC(=O)CNC1=O [cLBEC, H-PenDLRNVKKLGGC-NH2] (H-[Pen]DLRNVKKLGGC-NH2; disulfide 1-12)",effectiveness in inhibiting responder T-cell proliferation,[1],more effective than LBE
B1,"Inhibition of T-cell Proliferation (%) in mixed lymphocyte reaction, peptide at 500 µM",[2],18%
B2,"Inhibition of T-cell Proliferation (%) in mixed lymphocyte reaction, peptide at 500 µM",[2],18%
B3,"Inhibition of T-cell Proliferation (%) in mixed lymphocyte reaction, peptide at 500 µM",[2],56.5%
B4,"Inhibition of T-cell Proliferation (%) in mixed lymphocyte reaction, peptide at 500 µM",[2],-90.5%
B5,"Inhibition of T-cell Proliferation (%) in mixed lymphocyte reaction, peptide at 500 µM",[2],24.8%
B6,"Inhibition of T-cell Proliferation (%) in mixed lymphocyte reaction, peptide at 500 µM",[2],-47.6%
